Experimental data from ChEMBL document CHEMBL3596187, “Design and synthesis of membrane-targeting antibiotics: from peptides- to aminosugar-based antimicrobial cationic amphiphiles” (2014).
Converted amounts (≈) assume the structure as drawn. Values belong to the compound of their own block, whether it stands above or below them.

Columns and labels:
Format in all cases: functional
Streptococcus mutans = test: Antimicrobial activity against Streptococcus mutans by agar dilution method
[1] = system: Porphyromonas circumdentaria; test: Antimicrobial activity against protease-positive Porphyromonas circumdentaria by agar dilution method
[2] = system: Porphyromonas cangingivalis; test: Antimicrobial activity against protease-positive Porphyromonas cangingivalis by agar dilution method
Porphyromonas gingivalis = test: Antimicrobial activity against protease-positive Porphyromonas gingivalis by agar dilution method
Staphylococcus = test: Antimicrobial activity against Staphylococci
Escherichia coli = test: Antimicrobial activity against Escherichia coli after 18 to 24 hrs by geometric microdilution method
Klebsiella pneumoniae = test: Antimicrobial activity against Klebsiella pneumoniae after 18 to 24 hrs by geometric microdilution method
Pseudomonas aeruginosa = test: Antimicrobial activity against Pseudomonas aeruginosa after 18 to 24 hrs by geometric microdilution method
Acinetobacter lwoffii = test: Antimicrobial activity against Acinetobacter lwoffii after 18 to 24 hrs by geometric microdilution method

- MIC (Streptococcus mutans): 1 µg/mL (≈ 1.48 µM)
- MIC [1]: 1 µg/mL (≈ 1.48 µM)
- MIC [2]: 2 µg/mL (≈ 2.95 µM)
- MIC (Porphyromonas gingivalis): 2 µg/mL (≈ 2.95 µM)
SMILES: CCCCCCCCNCCC[C@@H](C)[C@H]1CC[C@H]2[C@@H]3[C@H](OCCCN)C[C@@H]4C[C@H](OCCCN)CC[C@]4(C)[C@H]3C[C@H](OCCCN)[C@]12C

- MIC (Staphylococcus): 0.095 µg/mL (≈ 0.143 µM)
SMILES: CCN(CC)CCCCOc1cc2oc3cc(OCCCCN(CC)CC)c(OC)c(CC=C(C)C)c3c(=O)c2c(O)c1CC=C(C)C

- MIC (Escherichia coli): 2 µg/mL (≈ 2.69 µM)
- MIC (Klebsiella pneumoniae): 2 µg/mL (≈ 2.69 µM)
- MIC (Pseudomonas aeruginosa): 2 µg/mL (≈ 2.69 µM)
- MIC (Acinetobacter lwoffii): 2 µg/mL (≈ 2.69 µM)
SMILES: NC[C@H]1O[C@H](O[C@H]2[C@H](O)[C@@H](OCc3ccc4ccccc4c3)[C@H](N)C[C@@H]2N)[C@H](N)[C@@H](OCc2ccc3ccccc3c2)[C@@H]1OCc1ccc2ccccc2c1
